Assay results reported in publication PMC10934055, “α-Glucosidase Inhibitory Phytochemical Components of Chinese Endemic Plant Whitfordiodendron filipes var. tomentosum” (Plants, 2024).
Read-outs that look alike come from different tables or passages of the source.

Tests used:
[1] = target: T1, α-Glucosidase (Saccharomyces cerevisiae, UniProt P53341); experiment: biochemical; settings: for inhibition at 2 µg/mL / inhibition at 4 µg/mL / inhibition at 6 µg/mL / inhibition at 8 µg/mL / inhibition at 10 µg/mL: read-out: α-glucosidase inhibition rate;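 on all read-outs here: yeast α-glucosidase premixed with inhibitor in phosphate buffer for 15 min at 37 °C, then a further 15 min reaction with p-NPG substrate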
T1 construct: purchased Sigma (Sigma-Aldrich) G5003
T1 sequence (P53341 whole entry): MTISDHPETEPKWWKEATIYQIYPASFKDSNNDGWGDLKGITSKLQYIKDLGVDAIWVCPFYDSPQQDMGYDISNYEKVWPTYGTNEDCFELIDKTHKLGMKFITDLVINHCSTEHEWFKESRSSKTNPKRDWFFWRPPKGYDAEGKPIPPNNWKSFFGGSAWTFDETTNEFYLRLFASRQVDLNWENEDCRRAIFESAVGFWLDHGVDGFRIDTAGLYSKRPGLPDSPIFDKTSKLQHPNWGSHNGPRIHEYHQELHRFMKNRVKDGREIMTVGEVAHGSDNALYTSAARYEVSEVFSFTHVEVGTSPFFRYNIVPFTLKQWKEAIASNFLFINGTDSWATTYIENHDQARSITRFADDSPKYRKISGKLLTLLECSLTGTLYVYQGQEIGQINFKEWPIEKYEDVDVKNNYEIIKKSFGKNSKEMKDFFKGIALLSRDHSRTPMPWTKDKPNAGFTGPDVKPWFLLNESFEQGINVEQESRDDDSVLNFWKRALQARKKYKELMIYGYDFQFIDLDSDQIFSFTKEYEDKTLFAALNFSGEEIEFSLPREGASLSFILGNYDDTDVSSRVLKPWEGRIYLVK

[2] = target: α-glucosidase; settings: read-out: IC50 (α-glucosidase inhibitory activity), cited from earlier work
[3] = read-out: IC50 (α-glucosidase inhibitory bioassay), baker's yeast α-glucosidase, p-NPG, pH 6.86, 37 °C

Q: Which results are given for `CC(=O)O[C@H]1CC[C@]2(C)[C@H]3CC=C4[C@@H]5CC(C)(C)CC[C@]5(C(=O)O)CC[C@@]4(C)[C@]3(C)CC[C@H]2C1(C)C` [Compound 1, 3-acetyloleanolic acid]?
A: α-glucosidase inhibitory activity (judgement in words) [1]: significant inhibitory activities; IC50 ([1]; baker's yeast α-glucosidase, p-NPG, pH 6.86, 37 °C, read-out: IC50 (α-glucosidase inhibitory bioassay)): 16.8 ± 0.23 µM; inhibition at 2 µg/mL [1]: 10.1%; inhibition at 4 µg/mL [1]: 24.3%; inhibition at 6 µg/mL [1]: 38.2%; inhibition at 8 µg/mL [1]: 48.3%; inhibition at 10 µg/mL [1]: 56.5%; IC50 ([2]; compounds isolated from Coffea canephora): 146.9 ± 1.2 µM

Q: For `CC1(C)CC[C@]2(C(=O)O)CC[C@]3(C)C(=CC[C@@H]4[C@@]5(C)CC[C@H](O)C(C)(C)[C@@H]5CC[C@]43C)[C@@H]2C1` [Compound 2, oleanolic acid], which “α-glucosidase inhibitory activity (judgement in words)” value (from here on “α-glucosidase inhibitory activity”) [1] is on record?
A: significant inhibitory activities

Q: And the inhibition at 4 µg/mL [1]?
A: 27.8%

Q: And the inhibition at 6 µg/mL [1]?
A: 39.9%

Q: What about the inhibition at 10 µg/mL [1] of the same molecule?
A: 61.5%

Q: With `CC(C)(O)[C@@H]1CC[C@]2(C)CC[C@]3(C)[C@H](CC[C@@H]4[C@@]5(C)CC[C@H](O)C(C)(C)[C@@H]5CC[C@]43C)[C@@H]12` [Compound 3, monogynol A] as the molecule, how does the “α-glucosidase inhibitory activity” value [1] read?
A: inactive

Q: What about the inhibition at 2 µg/mL ([1]; concentration 2.0 μg·mL-1) of the same molecule?
A: 2.2%

Q: What about the inhibition at 4 µg/mL ([1]; concentration 4.0 μg·mL-1) of the same molecule?
A: 3.1%

Q: What about the inhibition at 6 µg/mL ([1]; concentration 6.0 μg·mL-1) of the same molecule?
A: 3.4%

Q: And the inhibition at 8 µg/mL ([1]; concentration 8.0 μg·mL-1)?
A: 3.4%

Q: And the inhibition at 10 µg/mL ([1]; concentration 10.0 μg·mL-1)?
A: 4.3%

Q: For `C=C(C)[C@@H]1CC[C@]2(C)CC[C@]3(C)[C@H](CC[C@@H]4[C@@]5(C)CC[C@H](O)C(C)(C)[C@@H]5CC[C@]43C)[C@@H]12` [Compound 4, lupeol], which IC50 [1] is on record?
A: 19.2 ± 0.17 µM

Q: And the “α-glucosidase inhibitory activity” value [1]?
A: significant inhibitory activities

Q: And the inhibition at 2 µg/mL ([1]; concentration 2.0 μg·mL-1)?
A: 12.5%

Q: And the inhibition at 4 µg/mL ([1]; concentration 4.0 μg·mL-1)?
A: 25.1%

Q: And the inhibition at 6 µg/mL ([1]; concentration 6.0 μg·mL-1)?
A: 38.6%

Q: What about the inhibition at 8 µg/mL ([1]; concentration 8.0 μg·mL-1) of the same molecule?
A: 49.2%

Q: And the inhibition at 10 µg/mL ([1]; concentration 10.0 μg·mL-1)?
A: 58.4%

Q: And the IC50 ([2]; compound isolated from Sabia parviflora)?
A: 452 ± 5.3 µM

Q: Which “α-glucosidase inhibitory activity” value [1] does the source give for `CC(C)(O)[C@@H]1CC[C@]2(C)CC[C@]3(C)[C@H](CC[C@@H]4[C@@]5(C)CCC(=O)C(C)(C)[C@@H]5CC[C@]43C)[C@@H]12` [Compound 5, 20-hydroxy-lupan-3-one] here?
A: inactive

Q: And the inhibition at 2 µg/mL ([1]; concentration 2.0 μg·mL-1)?
A: 7.2%

Q: What about the inhibition at 4 µg/mL ([1]; concentration 4.0 μg·mL-1) of the same molecule?
A: 9.3%

Q: What about the inhibition at 6 µg/mL ([1]; concentration 6.0 μg·mL-1) of the same molecule?
A: 11%

Q: And the inhibition at 8 µg/mL ([1]; concentration 8.0 μg·mL-1)?
A: 13.4%

Q: What about the inhibition at 10 µg/mL ([1]; concentration 10.0 μg·mL-1) of the same molecule?
A: 15.8%

Q: What about the IC50 [1, 3] of the same molecule?
A: < 100 µM

Q: Which IC50 [1] does the source give for `C=C(C)[C@@H]1CC[C@]2(C(=O)O)CC[C@]3(C)[C@H](CC[C@@H]4[C@@]5(C)CCC(=O)C(C)(C)[C@@H]5CC[C@]43C)[C@@H]12` [Compound 6, betulonic acid] here?
A: 17.2 ± 0.27 µM

Q: What about the “α-glucosidase inhibitory activity” value [1] of the same molecule?
A: significant inhibitory activities

Q: And the inhibition at 2 µg/mL ([1]; concentration 2.0 μg·mL-1)?
A: 10.1%

Q: And the inhibition at 4 µg/mL ([1]; concentration 4.0 μg·mL-1)?
A: 24.3%

Q: What about the inhibition at 6 µg/mL ([1]; concentration 6.0 μg·mL-1) of the same molecule?
A: 38.2%

Q: What about the inhibition at 8 µg/mL ([1]; concentration 8.0 μg·mL-1) of the same molecule?
A: 51.7%

Q: And the inhibition at 10 µg/mL ([1]; concentration 10.0 μg·mL-1)?
A: 60.5%

Q: And the IC50 ([2]; compound isolated from Buddleja saligna)?
A: 60.1 µM

Q: Which inhibition at 2 µg/mL ([1]; concentration 2.0 μg·mL-1) does the source give for `CC(=O)O[C@H]1CC[C@]2(C)[C@H]3CC[C@@H]4[C@@H]([C@@](C)(O)CCC=C(C)C)CC[C@@]4(C)[C@]3(C)CC[C@H]2C1(C)C` [Compound 8, dammar-24-ene-3β-acetoxy-20S-ol] here?
A: 3.7%

Q: And the inhibition at 4 µg/mL ([1]; concentration 4.0 μg·mL-1)?
A: 6.2%

Q: And the inhibition at 6 µg/mL ([1]; concentration 6.0 μg·mL-1)?
A: 8.1%

Q: And the inhibition at 8 µg/mL ([1]; concentration 8.0 μg·mL-1)?
A: 10.2%

Q: What about the inhibition at 10 µg/mL ([1]; concentration 10.0 μg·mL-1) of the same molecule?
A: 11.1%

Q: And the IC50 [1, 3]?
A: < 100 µM

Q: For `CCC(CC[C@@H](C)[C@H]1CC[C@H]2[C@@H]3CCC4=CC(=O)CC[C@]4(C)[C@H]3CC[C@]12C)C(C)C` (stereo partly drawn) [Compound 9, (20R)-24-ethylcholest-4-en-3-one], which IC50 [1, 3] is on record?
A: < 100 µM

Q: What about the inhibition at 2 µg/mL [1] of the same molecule?
A: 6.1%

Q: And the inhibition at 4 µg/mL [1]?
A: 8.3%

Q: And the inhibition at 6 µg/mL [1]?
A: 12.2%

Q: What about the inhibition at 8 µg/mL [1] of the same molecule?
A: 15.6%

Q: And the inhibition at 10 µg/mL [1]?
A: 17.5%

Q: Which results are given for `CC[C@H](/C=C/[C@@H](C)[C@H]1CC[C@H]2[C@@H]3CC=C4C[C@@H](O)CC[C@]4(C)[C@H]3CC[C@]12C)C(C)C` [Compound 10, stigmasterol]?
A: IC50 [1, 3]: < 100 µM; inhibition at 2 µg/mL [1]: 2.4%; inhibition at 4 µg/mL [1]: 4.3%; inhibition at 6 µg/mL [1]: 7.1%; inhibition at 8 µg/mL [1]: 9.6%; inhibition at 10 µg/mL [1]: 10.1%

Q: With `C[C@H]1O[C@H](O[C@H]2[C@H](O)[C@@H](O)[C@@H](O[C@H]3[C@H](O)[C@@H](O)C(O)O[C@@H]3CO)O[C@@H]2CO)[C@H](O)[C@@H](O)[C@@H]1N[C@H]1C=C(CO)[C@@H](O)[C@H](O)[C@H]1O` (stereo partly shown) [acarbose, reference compound] as the molecule, how does the inhibition at 2 µg/mL [1] read?
A: 11.1%

Q: And the inhibition at 4 µg/mL [1]?
A: 25.3%

Q: What about the inhibition at 6 µg/mL [1] of the same molecule?
A: 37.9%

Q: And the inhibition at 8 µg/mL [1]?
A: 52.4%

Q: What about the inhibition at 10 µg/mL [1] of the same molecule?
A: 65.7%
